Laboratory results from patent US20130288917A1, “Rapid High Resolution, High Throughput RNA Structure, RNA-Macromolecular Interaction, and RNA-Small Molecule Interaction Mapping” (The Board of Trustees of the Leland Stanford Junior …, priority 2010, published 2013).
“Also recorded” adds a separate entry of the source.

Test system: HCV IRES
Experiment: sf-SHAPE structure mapping of the HCV IRES in the presence of miRNA
Type: binding, Hepatitis C virus
From the text: First, the intricacies (and cost) introduced by using multiple fluorophores have been eliminated by using a single fluorophore-labelled primer and multiple capillaries, rather than using multiple fluorophores sets in each capillary. We have therefore named this technique, single fluorophore SHAPE (sf-SHAPE). sf-SHAPE is a fragment analysis method that uses an internal standard to allow data from one capillary to be directly compared to data from another, with high precision. Commercial software (Peak Scanner, ABI), as well as custom-designed software (CAFA)11, which assign fragment lengths to peaks using an internal standard and integrates each peak area, are freely available.
We have designed a program entitled Fast Analysis of SHAPE Traces (FAST), which then takes the output from Peak Scanner and automatically (a) corrects for signal decay; (b) corrects for differences in signal strength among samples; and (c) assigns the determined SHAPE reactivity to the appropriate nucleotide, using a ddNTP sequencing ladder and the local southern method. […] FAST is able to generate SHAPE reactivity data from electrophoretic traces in as little as 5-10 minutes, as opposed to hours, with high experimental reproducibility (R2=0.93).
We next explored the effect of miR-122 on the HCV IRES structure. In this experiment, the HCV IRES structure was determined in the presence of miR-122 as well as a control miRNA, miR-124. The IRES structure was also determined in the presence of a mutant miR-122, in which the seed region of miR-122 was retained (NT 1-9), while the remainder of the miRNA was replaced by the end of miR-124 [miR-122(seed) with miR-124(tail)].
SHAPE performed as previously described by Mortimer & Weeks (2009) Nature protocols 4, 1413-1421; and Wilkinson et al. (2006) Nature protocols 1, 1610-1616 except: RNA purification after acylation and removal of miRNA before RT by RNA C&C (Zymoresearch); DNA purification by size exclusion (Sephadex G-50 resin); 1 pmol RNA used in sequences reactions; fragment analysis protocol (GeneScan/ROX 500 standard/50 cm capillary/POP6/voltage 15 kV/T=60° C./injection time=15 s (3100 ABI); 6-FAM labelled primers), and PeakScanner/FAST analysis. IRES folding29, (100 mM NaCl; 2.5 mM MgCl), alamar blue assay and qRT-PCR were performed as previously described30. Luciferase assay performed as described30, except co-transfection (HCV/LNA) was by lipofectamine 2000 (3.5×10^5 huh 7.5 cells/well), with translation measured at 4 hours. LNAs purchased from Exiqon (Scramble-miR/hsa-miR-122 kd2). Sequence logo: RNA graphics were drawn using RNA Viz. P-values (two-tailed unpaired t-test) calculated by InStat 3 (Graphpad).

miR-122: liver-expressed miRNA, UGGAGUGUGA CAAUGGUGUUUG (UGGAGUGUGACAAUGGUGUUUG)
effect on IRES structure (SHAPE reactivity) (HCV IRES with versus without miRNA): induced a number of changes
binding at NTs 32-37 (outside the complementary seed region): results in binding
binding to the S2 target of the IRES (NT 38-42) (seed site): bound
flexibility of the S2 target site (upon addition of miRNA, HCV nucleotides 32-42): significant reduction in flexibility
flexibility / reactivity of domain IV (AUG start site) (upon addition of miRNA, nucleotides 335, 336, 351): becomes more flexible; also recorded: significantly increased flexibility
